According to EP2147913A1, “Styrylquinolines, their process of preparation and their therapeutic uses” (BioAlliance Pharma, priority 2008, dated 2010):
Like-named read-outs stand apart in the source and are kept apart here.

Legend:
[1] = Viability assay (MTT cytotoxicity); assay type: cell-based; settings: human; for CC50 at 48 h: hela-p4 cells, 2 days
Description: The cytotoxicity of compounds was evaluated using un-infected and infected HeLa-P4 cell and CEM leukemia cells. CEM cell were obtained from the American Type Tissue Collection (Rockville, MD).
A serial dilution of drugs is done to evaluate the cytotoxicity concentration and is identified by CC50 (concentration of drug which induces 50% of cytotoxicity)
The HeLa-P4 was cultured in the presence or absence of compounds for 2 days. After this time period, cells were cultivated with MTT for 3 hours, further the medium is removed. And the lysis buffer is incubated for 1 hour, followed by plate reading at 540 nm in a microplate reader.

[2] = test system: wild type HIV-1 virus (NL 4.3 strains); assay: Antiviral activity assay CEM cells; assay type: cell-based; settings: Human immunodeficiency virus 1, CCRF-CEM
Description: The activity is determined by infecting CEM cells with a wild type HIV-1 virus (NL 4.3 strains at 3ng) on cells in presence or absence of drugs.
A serial dilution of drugs is done to evaluate the EC50.
The effective concentration is the concentration of product at which virus replication is inhibited by 50 percent.
After 48 hours incubation, the quantification is done by the evaluation of the viral protein p24 with a commercial Elisa Kit. P24 is a protein essential to the replication virus cycle. The quantification of this enzyme is proportional to the amount of virus produced by the infected cells.

[3] = test system: wild type HIV-1 virus (NL 4.3 strains); assay: Antiviral activity assay on Hela P4 cells; assay type: cell-based; settings: Human immunodeficiency virus 1, HeLaP4, 48 h, read-out: P4 IC50 (µM)
Description: The antiviral activity is determined by infecting HelaP4 cells with a wild type HIV-1 virus (NL 4.3 strains at 3 ng) on cells in presence or absence of drugs.
A serial dilution of drugs is done to evaluate the EC50. The effective concentration is the concentration of product at which virus replication is inhibited by 50 percent.
After 48 hours incubation, the quantification is done by the evaluation of β-Galactosidase produced by the infected Hela P4 cells. The viral activity is evaluated by colorimetric assay, CPRG, followed by plate reading at 570 nm with a reference of 690 nm. The CPRG test is a colorimetric assay which allows to quantity the β-galactosidase produced by HIV-1 infected indicator cells (the β-Gal gene being under the control of the HIV-1 LTR).

HBX2 HIV integrase [4] = molecular target: T1, HBX2 HIV integrase (Human immunodeficiency virus type 1 group M subtype B, UniProt P04585); assay: Strand Transfer Assay; assay type: biochemical
T1 construct: The pET-15b-IN plasmid contains the cDNA encoding the HBX2 HIV integrase; His tag (N, cleaved yes); made in house; host or cells: Escherichia coli BL21 (DE3)
Description: (§1) The pET-15b-IN plasmid contains the cDNA encoding the HBX2 HIV integrase. His-tagged integrase protein was overexpressed in Escherichia coli BL21 (DE3) and purified under native conditions. Briefly, at an OD of 0.8, fusion protein expression was induced in bacterial cultures by the addition of IPTG (1 mM). Cultures were incubated for 3 h at […], after which cells were centrifuged. The cell pellet was resuspended in ice-cold buffer A [20 mM Tris-HCl (pH 8), 1 M NaCl, 4 mM β-mercaptoethanol, and 5 mM imidazole], treated with lysozyme for 1 h on ice, and sonicated. After centrifugation (30 min at 10 000 rpm), the supernatant was filtered (0.45 µm) and incubated for at least 2 h with Ni-NTA agarose beads (Pharmacia). The beads were washed twice with 10 volumes of buffer A, 10 volumes of buffer A with 50 mM imidazole, and 10 volumes of buffer A with 100 mM imidazole. His-tagged integrase was then eluted with buffer A supplemented with 50 µM ZnSO4 and 1 M imidazole. The integrase concentration was adjusted to 0.1 mg/mL in buffer A. The fusion protein was cleaved using thrombin and dialyzed overnight against 20 mM Tris-HCl (pH 8), 1 M NaCl, and 4 mM β-mercaptoethanol. After removal of biotinylated thrombin by incubation with streptavidin-agarose magnetic beads (Novagen, Madison, WI), a second dialysis was performed for 2 h against 20 mM Tris-HCl (pH 8), 1 M NaCl, 4 mM β-mercaptoethanol, and 20% (v/v) ethylene glycol. Fractions were aliquoted and rapidly frozen at -80°C.
(§2) Oligonucleotides U5B (5'-[…]-3'), U5B-2 (5'-GTGTGGAAAATCTCTAGCA-3'), U5A (5'-[…]-3') were purchased from Eurogentec (Liege, Belgium) and further purified on an 18% denaturing acrylamide/urea gel. For processing, strand transfer, 100 pmol of U5B, U5B-2, respectively, were radiolabeled using T4 polynucleotide kinase and 50 µCi of [γ-32P]ATP (3000 Ci/mmol). […]
Processing, strand transfer reactions were performed using U5A-U5B-2, in buffer containing 20 mM Tris (pH 7.2), 50 mM NaCl, 10 mM DTT, 10mM MgCl2. […] Gels were analyzed using a STORM Molecular Dynamics phosphorimager and quantified with Image Quant™ 4.1 software.

HBX2 HIV integrase [5] = molecular target: T1, HBX2 HIV integrase; assay: 3' LTR Processing Assay; assay type: biochemical
Description: as §1, §2
Processing reaction was performed using U5A-U5B, in buffer containing 20 mM Tris (pH 7.2), 50 mM NaCl, 10 mM DTT, and 10mM MgCl2. […] Gels were analyzed using a STORM Molecular Dynamics phosphorimager and quantified with Image Quant™ 4.1 software.

[6] = U5A-U5B-2 substrate DNA 12.5 nM, IN 200nM, 10mM MgCl2, up to 2 h at 37°C, read-out: Transfert IC50
[7] = U5A-U5B substrate DNA 12.5 nM, IN 200 nM, 10mM MgCl2, up to 2 h at 37°C, read-out: Processing IC50

SMILES	CC50 at 48 h ([1]; comparative example, read-out: Cytoto-IC50 IC50) [µM]	IC50 at 2 days ([1]; HeLa-P4 cells) [µM]	EC50 ([2]; CEM cells, NL 4.3, 48 hours, p24 Elisa, read-out: CEM) [µM]	IC50 [3] [µM]	IC50 (HBX2 HIV integrase [4]) [nM]	IC50 (HBX2 HIV integrase [5]) [nM]	CC50 at 48 h ([1]; read-out: Cytotoxicity IC50) [µM]	EC50 ([2]; 48 h, read-out: CEM (µM)) [µM]	IC50 (HBX2 HIV integrase [4]; [6]) [nM]	IC50 (HBX2 HIV integrase [5]; [7]) [nM]
COc1cc(/C=C/c2ccc3ccc(C(=O)O)c(O)c3n2)cc(O)c1O [FZ41, reference compound]	> 100	–	–	–	–	–	–	–	–	–
O=C(O)c1ccc2ccc(/C=C/c3cc(O)c(O)c(Cl)c3)nc2c1O [SQE41, (E)-2-(3-chloro-4,5-dihydroxystyryl)-8-hydroxyquinoline-7-carboxylic acid]	–	22.5	36	5	280	280	–	–	–	–
COc1cc(/C=C/c2ccc3ccc(Br)c(O)c3n2)cc(O)c1O [SQE63]	–	–	–	0.82	–	–	11.7	2.8	950	950
O=C(O)c1ccc2ccc(/C=C/c3cc(O)c(O)c([N+](=O)[O-])c3)nc2c1O [SQE67]	–	–	–	6.2	–	–	35	42	180	150
